Experimental data as given in the CheMixHub viscosity set.

Experiment: xn = mol fraction of the nth substance listed

CC(O)CO (stereo not drawn) + CC(C)CO
viscosity [mPa·s], 100 kPa
Details | x2 = 0.101 | x2 = 0.2 | x2 = 0.3 | x2 = 0.4 | x2 = 0.5 | x2 = 0.6 | x2 = 0.7 | x2 = 0.8 | x2 = 0.9
298.15 K | 29.95 | 22.5 | 16.76 | 12.73 | 9.74 | 7.778 | 6.056 | 4.843 | 3.968
303.15 K | 22.85 | 17.38 | 13.28 | 10.21 | 7.878 | 6.366 | 5.037 | 4.08 | 3.366
308.15 K | 17.8 | 13.79 | 10.5 | 8.284 | 6.476 | 5.284 | 4.197 | 3.45 | 2.869
313.15 K | 14.12 | 11.03 | 8.532 | 6.802 | 5.362 | 4.42 | 3.54 | 2.939 | 2.471
318.15 K | 11.32 | 8.884 | 6.942 | 5.599 | 4.486 | 3.744 | 3.013 | 2.533 | 2.129
323.15 K | 9.291 | 7.286 | 5.767 | 4.693 | 3.766 | 3.185 | 2.59 | 2.192 | 1.846

ClC=C(Cl)Cl + CC(C)O
viscosity [mPa·s]
Details | 293.15 K | 303.15 K | 313.15 K
101.3 kPa, x1 = 0.1036 | – | 1.363 | –
101.3 kPa, x1 = 0.2204 | – | 1.053 | –
101.3 kPa, x1 = 0.3432 | – | 0.849 | –
101.3 kPa, x1 = 0.4172 | – | 0.765 | –
101.3 kPa, x1 = 0.5133 | – | 0.686 | –
101.3 kPa, x1 = 0.6024 | – | 0.641 | –
101.3 kPa, x1 = 0.7196 | – | 0.603 | –
101.3 kPa, x1 = 0.8017 | – | 0.583 | –
101.3 kPa, x1 = 0.9028 | – | 0.556 | –
101.33 kPa, x2 = 0.15 | 0.7418 | 0.6628 | 0.5527
101.33 kPa, x2 = 0.3 | 0.9127 | 0.7947 | 0.6334
101.33 kPa, x2 = 0.45 | 1.083 | 0.9265 | 0.7141
101.33 kPa, x2 = 0.6 | 1.257 | 1.058 | 0.7948
101.33 kPa, x2 = 0.75 | 1.428 | 1.19 | 0.8775
101.33 kPa, x2 = 0.9 | 1.596 | 1.322 | 0.9562

CCCCCCCCCCCCCCO + CC(C)[C@@H]1CC[C@@H](C)C[C@H]1O
100 kPa, x1 = 0.333
Details | viscosity [mPa·s]
293.15 K | 44.69
298.15 K | 31.86
303.15 K | 23.35
308.15 K | 17.54
313.15 K | 13.47
318.15 K | 10.53
323.15 K | 8.38

ClC=C(Cl)Cl + CCC(C)(C)O
298.15 K, 101 kPa
Details | viscosity [mPa·s]
x2 = 0.0494 | 0.556
x2 = 0.101 | 0.576
x2 = 0.1994 | 0.626
x2 = 0.2988 | 0.69
x2 = 0.3984 | 0.779
x2 = 0.4991 | 0.909
x2 = 0.5974 | 1.08
x2 = 0.7 | 1.353
x2 = 0.7976 | 1.723
x2 = 0.9001 | 2.365

Cc1ccccn1 + CCC(C)=O
viscosity [mPa·s], 101.3 kPa
Details | x1 = 0.1 | x1 = 0.2 | x1 = 0.3 | x1 = 0.4 | x1 = 0.5 | x1 = 0.6 | x1 = 0.7 | x1 = 0.7999 | x1 = 0.9
303.15 K | 0.4017 | 0.4296 | 0.4565 | 0.4877 | 0.5193 | 0.5612 | 0.5978 | 0.6425 | 0.6942
313.15 K | 0.3667 | 0.3917 | 0.416 | 0.4445 | 0.4702 | 0.5038 | 0.5356 | 0.5718 | 0.6118
323.15 K | 0.3457 | 0.3572 | 0.3813 | 0.4009 | 0.4264 | 0.4523 | 0.4827 | 0.5104 | 0.5528

ClC=C(Cl)Cl + CCC(C)=O
viscosity [mPa·s], 101.33 kPa
Details | x1 = 0.1037 | x1 = 0.1997 | x1 = 0.3082 | x1 = 0.3915 | x1 = 0.4564 | x1 = 0.5979 | x1 = 0.7166 | x1 = 0.7989 | x1 = 0.891
298.15 K | – | 0.507 | – | – | 0.557 | 0.592 | 0.612 | 0.622 | 0.63
308.15 K | 0.447 | 0.467 | 0.491 | 0.506 | 0.518 | 0.543 | 0.559 | 0.564 | 0.575
318.15 K | 0.413 | 0.434 | 0.456 | 0.471 | 0.481 | 0.504 | 0.521 | 0.531 | 0.541

NC1CCCCC1 + CCC(C)=O
298.15 K, 101 kPa
Details | viscosity [mPa·s]
x1 = 0.0747 | 0.5316
x1 = 0.1538 | 0.6621
x1 = 0.2376 | 0.8418
x1 = 0.3265 | 1.042
x1 = 0.421 | 1.235
x1 = 0.5217 | 1.449
x1 = 0.6291 | 1.625
x1 = 0.7441 | 1.781
x1 = 0.8674 | 1.823
x2 = 0.1326 | 1.574
x2 = 0.2559 | 1.409
x2 = 0.3708 | 1.257
x2 = 0.4783 | 1.115
x2 = 0.579 | 0.978
x2 = 0.6735 | 0.846
x2 = 0.7624 | 0.719
x2 = 0.8462 | 0.599
x2 = 0.9252 | 0.481

ClC=C(Cl)Cl + CCC(C)O
303.15 K, 101.3 kPa
Details | viscosity [mPa·s]
x1 = 0.1104 | 1.721
x1 = 0.213 | 1.3
x1 = 0.312 | 1.042
x1 = 0.4086 | 0.881
x1 = 0.5218 | 0.761
x1 = 0.6132 | 0.695
x1 = 0.7094 | 0.647
x1 = 0.8124 | 0.606
x1 = 0.9012 | 0.57

NC1CCCCC1 + CCC(C)O
298.15 K, 101 kPa
Details | viscosity [mPa·s]
x1 = 0.0767 | 2.804
x1 = 0.1574 | 2.619
x1 = 0.2426 | 2.472
x1 = 0.3325 | 2.369
x1 = 0.4277 | 2.302
x1 = 0.5285 | 2.25
x1 = 0.6355 | 2.224
x1 = 0.7493 | 2.148
x1 = 0.8706 | 2.002

CC(O)CO (stereo not drawn) + CCCCCCCO
Details | viscosity [mPa·s]
303.15 K, 101 kPa, x2 = 0.6097 | 7.655

ClC=C(Cl)Cl + CCCCCCCO
303.15 K, 101 kPa
Details | viscosity [mPa·s]
x2 = 0.1161 | 0.734
x2 = 0.2045 | 0.863
x2 = 0.3792 | 1.166
x2 = 0.4884 | 1.459
x2 = 0.5714 | 1.767
x2 = 0.6298 | 2.03
x2 = 0.737 | 2.643
x2 = 0.8161 | 3.197
x2 = 0.9242 | 4.119

CC(O)CO (stereo not drawn) + CCCCCCO
101 kPa
Details | viscosity [mPa·s]
303.15 K, x2 = 0.6309 | 6.725
308.15 K, x2 = 0.0771 | 20.05

O=C1CCCC1 + CCCCCCO
303.15 K, 101 kPa
Details | viscosity [mPa·s]
x1 = 0.0985 | 2.896
x1 = 0.2605 | 2.093
x1 = 0.4224 | 1.641
x1 = 0.5807 | 1.333
x1 = 0.7406 | 1.132
x1 = 0.9025 | 1.016

O=C1CCCC1 + CCCCCO
303.15 K, 101 kPa
Details | viscosity [mPa·s]
x1 = 0.0989 | 2.258
x1 = 0.2598 | 1.682
x1 = 0.4202 | 1.353
x1 = 0.5803 | 1.179
x1 = 0.7374 | 1.057
x1 = 0.9009 | 0.98

O=C1CCCC1 + CCCCN
303.15 K, 101.33 kPa
Details | viscosity [mPa·s]
x2 = 0.0957 | 1.45
x2 = 0.2075 | 1.902
x2 = 0.3126 | 2.204
x2 = 0.4731 | 2.34
x2 = 0.5364 | 2.252
x2 = 0.6816 | 1.904
x2 = 0.7758 | 1.552
x2 = 0.8894 | 1.073

CC(O)CO (stereo not drawn) + CCCCO
viscosity [mPa·s], 100 kPa
Details | 298.15 K | 303.15 K | 308.15 K | 313.15 K | 318.15 K | 323.15 K
x2 = 0.1 | 27.93 | 21.57 | 16.86 | 13.38 | 10.79 | 8.811
x2 = 0.2 | 19.65 | 15.46 | 12.28 | 9.943 | 8.14 | 6.729
x2 = 0.302 | 14.18 | 11.36 | 9.188 | 7.539 | 6.25 | 5.239
x2 = 0.4 | 10.82 | 8.829 | 7.309 | 6.057 | 5.107 | 4.328
x2 = 0.5 | 8.015 | 6.634 | 5.555 | 4.699 | – | –
x2 = 0.501 | – | – | – | – | 3.987 | 3.422
x2 = 0.6 | 6.068 | 5.094 | 4.337 | 3.686 | – | –
x2 = 0.601 | – | – | – | – | 3.178 | 2.743
x2 = 0.701 | 4.884 | 4.156 | 3.556 | 3.057 | 2.659 | 2.317
x2 = 0.801 | 3.858 | 3.307 | 2.885 | 2.514 | 2.199 | 1.937
x2 = 0.9 | 3.102 | 2.716 | 2.374 | 2.078 | – | –
x2 = 0.901 | – | – | – | – | 1.833 | 1.634

ClC=C(Cl)Cl + CCCCO
viscosity [mPa·s], 101 kPa
Details | x2 = 0.0983 | x2 = 0.2464 | x2 = 0.3954 | x2 = 0.5452 | x2 = 0.696 | x2 = 0.8476
303.15 K | 0.669 | 0.98 | 1.24 | 1.492 | 1.747 | 2
313.15 K | 0.601 | 0.814 | 1.03 | 1.218 | 1.408 | 1.599
323.15 K | 0.52 | 0.698 | 0.835 | 0.973 | 1.111 | 1.252

NC1CCCCC1 + CCCCO
viscosity [mPa·s], 101 kPa
Details | 293.15 K | 298.15 K | 303.15 K
x1 = 0.0515 | 2.935 | 2.587 | 2.27
x1 = 0.0767 | – | 2.558 | –
x1 = 0.1008 | 2.906 | 2.563 | 2.26
x1 = 0.147 | 2.891 | 2.549 | 2.24
x1 = 0.1574 | – | 2.555 | –
x1 = 0.2004 | 2.886 | 2.545 | 2.236
x1 = 0.2426 | – | 2.564 | –
x1 = 0.2992 | 2.897 | 2.547 | 2.233
x1 = 0.3325 | – | 2.574 | –
x1 = 0.4007 | 2.882 | 2.533 | 2.216
x1 = 0.4277 | – | 2.549 | –
x1 = 0.4475 | 2.868 | 2.523 | –
x1 = 0.4971 | 2.829 | 2.48 | 2.172
x1 = 0.5285 | – | 2.481 | –
x1 = 0.5421 | 2.784 | 2.442 | 2.142
x1 = 0.6078 | 2.701 | 2.387 | 2.095
x1 = 0.6355 | – | 2.379 | –
x1 = 0.7051 | 2.558 | 2.259 | 1.991
x1 = 0.7493 | – | 2.248 | –
x1 = 0.7941 | 2.419 | 2.142 | 1.893
x1 = 0.846 | 2.344 | 2.08 | 1.842
x1 = 0.8706 | – | 2.062 | –
x1 = 0.8879 | 2.295 | 2.039 | 1.81
x1 = 0.9384 | 2.216 | 1.973 | 1.751

O=C1CCCC1 + CCCCO
303.15 K, 101 kPa
Details | viscosity [mPa·s]
x1 = 0.101 | 1.725
x1 = 0.2614 | 1.339
x1 = 0.4183 | 1.143
x1 = 0.5813 | 1.026
x1 = 0.7417 | 0.974
x1 = 0.899 | 0.959
